The values below come from paper PMC10246279, “Parasite proteostasis and artemisinin resistance” (Research Square, 2023).

The target of assay [1] is T1, P. falciparum proteasome, β2 (trypsin-like) activity (Plasmodium falciparum, UniProt Q8I6T3).
T1 construct: gene PF3D7_1328100; native proteasome in NP-40 lysate of 26-30 hpi trophozoites; not purified; 20S core of four heptameric rings; with Proteasome subunit beta type-5; Proteasome subunit beta type-6 (beta1 catalytic subunit)
Kind of assay: fluorogenic Ac-RLR-AMC cleavage in lysate of drug-treated parasites. Particulars: read-out: % inhibition at 700 nM. Format: cell-based.

Assay [2] deals with T2, P. falciparum proteasome, β1 (caspase-like) activity.
T2 construct: gene beta1
As to conditions: live trophozoites treated 3 h, then lysed; K13 C580Y background; effect may be indirect.

The target in assay [3] is T3, P. falciparum proteasome, β5 (chymotrypsin-like) activity (Plasmodium falciparum, UniProt Q8IJT1).
T3 construct: gene PF3D7_1011400; native proteasome in NP-40 lysate of 26-30 hpi trophozoites; not purified; 20S core of four heptameric rings; with Proteasome subunit beta type-7 (beta2 catalytic subunit); Proteasome subunit beta type-6 (beta1 catalytic subunit)
T3 sequence (Q8IJT1 entry or part of it): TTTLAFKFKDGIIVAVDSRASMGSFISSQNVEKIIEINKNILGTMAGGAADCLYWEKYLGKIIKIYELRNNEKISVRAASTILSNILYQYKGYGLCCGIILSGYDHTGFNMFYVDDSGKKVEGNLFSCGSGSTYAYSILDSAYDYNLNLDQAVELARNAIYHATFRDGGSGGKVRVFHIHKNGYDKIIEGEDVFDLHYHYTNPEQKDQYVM
Kind of assay: fluorogenic Suc-LLVY-AMC cleavage in lysate of drug-treated parasites. Format: cell-based. As to conditions: read-out: % inhibition at 700 nM.

Assay [4] deals with T4, P. falciparum proteasome, β1 (caspase-like) activity (Plasmodium falciparum, UniProt Q8I0U7).
T4 construct: gene PF3D7_0931800; native proteasome in NP-40 lysate of 26-30 hpi trophozoites; not purified; 20S core of four heptameric rings; with Proteasome subunit beta type-7 (beta2 catalytic subunit); Proteasome subunit beta type-5
T4 sequence (Q8I0U7 entry or part of it): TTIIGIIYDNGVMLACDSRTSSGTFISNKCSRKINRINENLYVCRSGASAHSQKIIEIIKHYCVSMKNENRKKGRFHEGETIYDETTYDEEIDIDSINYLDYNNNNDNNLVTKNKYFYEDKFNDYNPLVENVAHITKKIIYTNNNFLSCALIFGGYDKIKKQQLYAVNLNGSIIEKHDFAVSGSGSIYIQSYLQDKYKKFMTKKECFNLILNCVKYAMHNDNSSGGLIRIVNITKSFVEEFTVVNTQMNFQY
Kind of assay: fluorogenic Ac-nLPnLD-AMC cleavage in lysate of drug-treated parasites. Format: cell-based. As to conditions: read-out: % inhibition at 700 nM.

Assay [5] relates to T5, P. falciparum proteasome, β5 (chymotrypsin-like) activity.
T5 construct: gene beta5
As to conditions: live trophozoites treated 3 h, then lysed; K13 C580Y background; effect may be indirect.

T1 sequence (Q8I6T3 entry or part of it): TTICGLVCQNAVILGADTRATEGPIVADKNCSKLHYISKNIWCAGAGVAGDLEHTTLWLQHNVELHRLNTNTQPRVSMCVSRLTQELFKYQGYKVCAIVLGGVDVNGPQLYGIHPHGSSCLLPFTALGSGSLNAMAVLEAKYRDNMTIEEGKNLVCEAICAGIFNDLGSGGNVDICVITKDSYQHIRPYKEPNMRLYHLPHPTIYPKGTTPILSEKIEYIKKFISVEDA

`C[C@@H]1CC[C@H]2[C@@H](C)C(O)O[C@@H]3O[C@@]4(C)CC[C@@H]1[C@]32OO4` (some centres unmarked) [DHA]: the inhibition (in general, the drop in the measured response relative to a control, in per cent) at 0.7 µM in assay [1] is about 40%; in assay [3] it was about 60%; in assay [4] it was about 40%. The % inhibition – broadly, the relative decrease from the control value, in per cent – at 50 nM in assay [2] came out at 49%.
`c1cc(C2CCC3(CC2)OOC2(O3)C3CC4CC(C3)CC2C4)ccc1OCCN1CCOCC1` (centres unmarked) [OZ439]: the “% inhibition at 3 μM” value in assay [5] was found to be 52%.
